Laboratory results published in publication PMC9408991, “Antitumor Effects of a New Retinoate of the Fungal Cytotoxin Illudin M in Brain Tumor Models” (International Journal of Molecular Sciences, 2022).
Where two headings read alike, the source gives them in different places.

Columns and labels:
[1] = test system: U87 glioma cells; assay: MTT cell viability assay, U87 glioma; assay type: cell-based; conditions: Homo sapiens, U-87 MG, read-out: Inhibitory concentration IC50
Procedure: 518A2 (Department of Radiotherapy, Medical University of Vienna, Vienna, Austria) melanoma, KB-V1^Vbl (ACC-149) cervix carcinoma, MCF-7^Topo (ACC-115) breast carcinoma, HT29 (ACC-299) colon carcinoma were cultivated in Dulbecco’s Modified Eagle Medium (DMEM) supplemented with 10% fetal bovine serum and 1% antibiotic-antimycotic at 37 °C, 5% CO2, and 95% humidity. To keep MCF-7^Topo and KB-V1^Vbl cells resistant, the maximum-tolerated doses of topotecan or vinblastine were added to the cell culture medium 24 h after every passage. The human HL60 leukemia cells were obtained from the German National Resource Center for Biological Material (DSMZ), Braunschweig. Neuroectodermal stem cells NE-4C (ATCC No. CRL-2925), primary mouse astrocytes, rat glioma C6 (ATCC No. CCL-107) and human glioma U87 (ATCC No. HTB-14) were used.
(§1) […] Afterward, 10 µL of a 5 mg/mL MTT solution in PBS was added to the cells for 3 h at 37 °C. Then, the spheres were centrifuged shortly to collect the cells on the bottom of the plate, and the medium was removed by careful pipetting for both adherently grown and floating sphere GBM cultures. Afterward, formazan was dissolved in a mixture (24:1 v:v) of isopropanol and 1 M HCl using 100 µL for adherent cells by shaking the plates for at least 20 min. The absorbance of formazan (λ = 570 nm), and background (λ = 630 nm) was measured with a microplate reader (Tecan Spark, Tecan Deutschland GmbH, Crailsheim, Germany).

[2] = test system: U251 glioblastoma cells; assay: MTT cell viability assay, U251 glioblastoma; assay type: cell-based; conditions: Homo sapiens, read-out: Inhibitory concentration IC50
Procedure: U251 (formerly known as U-373 MG; ECACC 09063001), Mz54 (CVCL_M406) human glioblastoma cell lines were cultured in DMEM+GlutaMax supplemented with 10% fetal bovine serum and 1% penicillin/streptomycin mixture. The human glioma cell line Mz54 was obtained from the Dept. of Neurosurgery, University Medical Centre, Johannes Gutenberg University Mainz, Germany, where this line was isolated from a recurrent grade IV glioblastoma. U251 and Mz54 cells were used in passages between 10 and 25 after re-authentication and 40 to 55 after culture establishment, respectively. Only mycoplasma-free cell cultures were used.
as §1

[3] = test system: MZ-54 glioblastoma cells; assay: Annexin V/PI flow cytometry; assay type: cell-based, human; conditions: MZ-54 cells
Procedure: U251 und Mz54 glioblastoma cells (6 × 10^5 cells/mL, 0.5 mL/well) were seeded in 24-well plates. The next day, the cells were treated with 1, 2 or vehicle (DMSO) for 48 h. Prior to the measurement, the cells were harvested and stained using Annexin-V-APC (BD Biosciences, Heidelberg, Germany) and propidium iodide (PI, 0.05 mg/mL, Sigma-Aldrich, Taufkirchen, Germany). Cells were analyzed with BD Accuri C6 flow-cytometer (BD Biosciences), and data processing was performed using BD Accuri C6 software (BD Biosciences).
Figure 7 (A–D). Annexin V/PI flow cytometry of MZ–54 cells upon treatment with 1 or 2, mean + SEM; Brown–Forsythe ANOVA test with Dunnett’s T3 multiple comparison test (compared with DMSO control); * < 0.05; ** < 0.01; *** < 0.001; **** < 0.0001.

[4] = test system: astrocytes and neurons in primary neuronal cultures; assay: Immunostaining of GFAP and βIII-tubulin in primary neuronal cultures; assay type: cell-based, mouse; conditions: 1 µM; for effect on GFAP filaments of astrocytes: 48 h exposure
Procedure: Astroglia cells grown on poly-L-lysine-coated glass cover slips were fixed with 4% paraformaldehyde in PBS for 20 min at room temperature and then permeabilized with Triton X-100 (0.1% v/v in PBS; 5 min). Nonspecific antibodies were blocked by incubation with 3% FBS in PBS (room temperature, 1 h). α-GFAP antibody (rabbit, DAKO) was used in a dilution of 1:2000 and was visualized by anti-rabbit IgG Alexa 594 (1:1000). DAPI (4′,6-diamidino-2-phenylindole) was used for nuclei staining. Fluorescence images were captured manually on a Zeiss Axiovert 200 M microscope fitted with 20- to 60-fold zoom and a Zeiss AxioCam MRm digital camera. Further applied antibodies were tubulin III (Sigma T5076), used at a dilution of 1:1000, and Annexin V. Cy3.18 (Sigma A4963).
Figure 4 Immunostaining of primary neurons derived from E14, 5 forebrains treated with 1 µM of 1, 2 or all-trans retinoic acid (RA) plus 1. Blue: nuclei stained with DAPI; green: tubulin stained with βIII-tubulin specific antibody; red: GFAP stained with α-GFAP antibody. Fluorescence microscope Zeiss Axiovert 200 M, 63× objective, 1024 × 1024 res. Scale bar: 50 µm.

SMILES	IC50 ([1]; U87, 24 h exposure) [nM]	IC50 ([1]; U87, 48 h exposure) [nM]	IC50 ([2]; U-251, U251, 48 h exposure) [nM]	cell death (Annexin V/PI) [3]	effect on GFAP filaments of astrocytes [4]	IC50 ([2]; U-251, U251, 24 h exposure) [nM]	effect on neuronal networks ([4]; 48 h)
CC1=C(/C=C/C(C)=C/C=C/C(C)=C/C(=O)O[C@@H]2C3=C(C)C4(CC4)[C@@](C)(O)C(=O)C3=CC2(C)C)C(C)(C)CCC1 [Compound 2, illudin M retinoate]	37000 ± 3000	2700 ± 700	4510 ± 1300	dose- and time-dependent increase in cell death	did not cause similar alterations to astrocytes		
CC1=C2C(=CC(C)(C)[C@@H]2O)C(=O)[C@](C)(O)C12CC2 [Compound 1, illudin M]	630 ± 40	130 ± 30	120 ± 20	dose- and time-dependent increase in cell death	markedly pitted	300 ± 50	did not completely disorganize neuronal networks
